Reference: patent US20250213712A1, “ANTIBODY DRUG CONJUGATES COMPRISING CAMPTOTHECIN DERIVATIVES AND USES THEREOF” (priority 2023, published 2025)
Where two headings read alike, the source gives them in different places.

Columns and labels:
Experiment in all cases: In vitro analysis of drugs (MTT cell viability)
SK-BR-3 cancer cells = assay type: cell-based; conditions: read-out: IC50 ± SD (nM) SK-BR3 (Breast)
Experimental: (§1) The drugs (compounds D1-D6, D21, D25, D27, D28, D35-D37, D46, D47, D48, D49 and controls DXd, FL118 and SN38) were evaluated on NCI-N87, MDA-MB-468, SK-BR-3, HCT116, and JIMT-1 cancer cells. The cancer cells were seeded in 96-well plates at a density of 2,000 to 5,000 cells per well in 100 µL of medium and cultured for 22 to 26 hours. The series of compound was diluted by serial dilution of 1:4˜1:8 from 2 μM to 1 pM with DMSO. The diluted drugs were added to triplicate wells of 96-well plates at 50 μL per well. All assays were performed, by repeating up to 3 times and the results were obtained in up to 3 independent experiments. The plates were incubated for 6 days at 37° C. in a humidified 5% CO2-in-air atmosphere. Cell viability was determined by the MTT assay. The 15 μL of 3-(4,5-dimethylthiazol-2-yl)-2,5-diphenyltetrazolium bromide (MTT) dye dissolved in PBS buffer solution (5 mg/mL) was added to each well of the plates. The formazans formed by reduction of the MTT dye by mitochondrial oxidoreductases in the living cells were dissolved in DMSO, the formazans measured using the absorbance at 550 nm. IC50 (half maximal inhibitory concentration) was generated using a sigmoidal dose-response nonlinear regression curve fit (GraphPad software Inc.).

MDA-MB-468 cancer cells = assay type: cell-based; conditions: read-out: IC50 ± SD (nM) MDA-MB-468 (TNBC)
Experimental: as §1

NCI-N87 cancer cells = assay type: cell-based, human; conditions: read-out: IC50 ± SD (nM) NCI-N87 (Gastric)
Experimental: as §1

[1] = Homo sapiens, MDA-MB-468, 144 h
[2] = Drugs, expression level 21.8 × 10^5, 6 days, MTT
[3] = Drugs, expression level 0.003 × 10^5, 6 days, MTT
[4] = Drugs, expression level 13.2 × 10^5, 6 days, MTT

CC[C@@]1(O)C(=O)OCc2c1cc1n(c2=O)Cc2c-1nc1cc(F)c(O)c3c1c2C(O)CC3 (some centres unmarked) [Compound D25]
IC50 (SK-BR-3 cancer cells; Homo sapiens, SK-BR-3, 144 h): 2.81 ± 0.43 nM | IC50 (MDA-MB-468 cancer cells; [1]): 4.49 ± 0.76 nM | IC50 (NCI-N87 cancer cells; Homo sapiens, NCI-N87, 144 h): 27.6 ± 8.26 nM

CC[C@@]1(O)C(=O)OCc2c1cc1n(c2=O)Cc2c-1nc1cc(F)c(C)c3c1c2[C@@H](NCc1ccc(O)cc1)CC3 [Compound D46]
IC50 (SK-BR-3 cancer cells; Homo sapiens, SK-BR-3, 144 h): 1.73 ± 0.19 nM | IC50 (MDA-MB-468 cancer cells; [1]): 0.92 ± 0.12 nM | IC50 (NCI-N87 cancer cells; Homo sapiens, NCI-N87, 144 h): 2.2 ± 0.13 nM

CC[C@@]1(O)C(=O)OCc2c1cc1n(c2=O)Cc2c-1nc1cc(F)c(C)c3c1c2[C@@H](NCCc1ccc(O)cc1)CC3 [Compound D47]
IC50 (SK-BR-3 cancer cells; Homo sapiens, SK-BR-3, 144 h): 1.8 nM | IC50 (MDA-MB-468 cancer cells; [1]): 0.96 nM | IC50 (NCI-N87 cancer cells; Homo sapiens, NCI-N87, 144 h): 2.13 nM

CC[C@@]1(O)C(=O)OCc2c1cc1n(c2=O)Cc2c-1nc1cc(F)c(O)cc1c2-c1ccco1 [Compound D27]
IC50 (SK-BR-3 cancer cells; Homo sapiens, SK-BR-3, 144 h): 1.79 ± 0.34 nM | IC50 (MDA-MB-468 cancer cells; [1]): 0.86 ± 0.11 nM | IC50 (NCI-N87 cancer cells; Homo sapiens, NCI-N87, 144 h): 6.52 ± 0.45 nM

CC[C@@]1(O)C(=O)OCc2c1cc1n(c2=O)Cc2c-1nc1cc(F)c(C)c3c1c2[C@@H](NC(=O)C(C)(O)C(F)(F)F)CC3 (some centres unmarked) [Compound D48]
IC50 (SK-BR-3 cancer cells; Homo sapiens, SK-BR-3, 144 h): 1.06 ± 0.15 nM | IC50 (MDA-MB-468 cancer cells; [1]): 0.4 ± 0.11 nM | IC50 (NCI-N87 cancer cells; Homo sapiens, NCI-N87, 144 h): 1.59 ± 0.09 nM

CC[C@@]1(O)C(=O)OCc2c1cc1n(c2=O)Cc2c-1nc1cc3c(cc1c2-c1cccc(O)c1)OCO3 [Compound D36]
IC50 (SK-BR-3 cancer cells; Homo sapiens, SK-BR-3, 144 h): 0.91 ± 0.13 nM | IC50 (MDA-MB-468 cancer cells; [1]): 0.52 ± 0.29 nM | IC50 (NCI-N87 cancer cells; Homo sapiens, NCI-N87, 144 h): 1.19 ± 0.02 nM

CC[C@@]1(O)C(=O)OCc2c1cc1n(c2=O)Cc2c-1nc1cc3c(cc1c2CCc1ccc(O)cc1)OCO3 [Compound D35]
IC50 (MDA-MB-468 cancer cells; [1]): 1.71 nM | IC50 (NCI-N87 cancer cells; Homo sapiens, NCI-N87, 144 h): 5.57 nM

CC[C@@]1(O)C(=O)OCc2c1cc1n(c2=O)Cc2c-1nc1cc(F)c(O)cc1c2-c1ccoc1 [Compound D28]
IC50 (SK-BR-3 cancer cells; Homo sapiens, SK-BR-3, 144 h): 5.31 ± 0.55 nM | IC50 (MDA-MB-468 cancer cells; [1]): 2.45 ± 0.37 nM | IC50 (NCI-N87 cancer cells; Homo sapiens, NCI-N87, 144 h): 12.7 ± 4.2 nM

CC[C@@]1(O)C(=O)OCc2c1cc1n(c2=O)Cc2c-1nc1cc(F)c(C)cc1c2-c1ccc(O)cc1 [Compound D37]
IC50 (SK-BR-3 cancer cells; Homo sapiens, SK-BR-3, 144 h): 0.89 ± 0.06 nM | IC50 (MDA-MB-468 cancer cells; [1]): 0.36 ± 0.23 nM | IC50 (NCI-N87 cancer cells; Homo sapiens, NCI-N87, 144 h): 1.19 ± 0.25 nM

CC[C@@]1(O)C(=O)OCc2c1cc1n(c2=O)Cc2c-1nc1cc3c(cc1c2-c1ccc(O)cc1)OCO3 [Compound D21]
IC50 (SK-BR-3 cancer cells; Homo sapiens, SK-BR-3, 144 h): 0.61 ± 0.03 nM | IC50 (MDA-MB-468 cancer cells; [1]): 0.38 ± 0.14 nM | IC50 (NCI-N87 cancer cells; Homo sapiens, NCI-N87, 144 h): 1.49 ± 0.53 nM

CC[C@@]1(O)C(=O)OCc2c1cc1n(c2=O)Cc2c-1nc1cc(F)c(C)c3c1c2[C@@H](NC(=O)CO)CC3 [DXd, reference compound]
IC50 (SK-BR-3 cancer cells; [2]): 1.87 ± 0.49 nM | IC50 (MDA-MB-468 cancer cells; [3]): 0.82 ± 0.3 nM | IC50 (NCI-N87 cancer cells; [4]): 7.12 ± 1.75 nM

CC[C@@]1(O)C(=O)OCc2c1cc1n(c2=O)Cc2cc3cc4c(cc3nc2-1)OCO4 [FL118, reference compound]
IC50 (SK-BR-3 cancer cells; [2]): 0.86 ± 0.1 nM | IC50 (MDA-MB-468 cancer cells; [3]): 0.37 ± 0.17 nM | IC50 (NCI-N87 cancer cells; [4]): 1.04 ± 0.18 nM

CC[C@@]1(O)C(=O)OCc2c1cc1n(c2=O)Cc2c-1nc1cc(F)c(C)c3c1c2[C@@H](NC(=O)Cc1ccc(O)cc1)CC3 [Compound D49]
IC50 (SK-BR-3 cancer cells; Homo sapiens, SK-BR-3, 144 h): 1.79 ± 0.24 nM | IC50 (MDA-MB-468 cancer cells; [1]): 0.83 ± 0.01 nM | IC50 (NCI-N87 cancer cells; Homo sapiens, NCI-N87, 144 h): 6.11 ± 0.19 nM

CCc1c2c(nc3ccc(O)cc13)-c1cc3c(c(=O)n1C2)COC(=O)[C@]3(O)CC [SN38, reference compound]
IC50 (SK-BR-3 cancer cells; [2]): 1.82 ± 1.21 nM | IC50 (MDA-MB-468 cancer cells; [3]): 0.68 ± 0.14 nM | IC50 (NCI-N87 cancer cells; [4]): 6.52 ± 1.55 nM
